Among the test systems are NCI-H23 lung; NCI-H226 lung; CAKI-1 renal; UACC-62 melanoma; SW-620 colon; SK-MEL-28 melanoma; OVCAR-8 ovarian; HT29 colon; UACC-257 melanoma; MDA-MB-435; HS 578T breast.
Common to all, as to assay: inhibition of tumour cell growth, NCI panel, 48 h

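Tested at 5 concentrations; 48 h exposure; 96-well plates; endpoints linearly interpolated, else capped at highest concentration. TGI: total growth inhibition.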

In the case of `COc1ccc(/C(Cl)=C(\C=O)c2ccc(F)cc2)cc1`, the TGI is 72.9 µM in the assay on NCI-H23 lung; 67.9 µM in the assay with NCI-H226 lung; 41 µM in the assay on CAKI-1 renal; 56 µM in the assay on UACC-62 melanoma; more than 100 µM in the assay on SW-620 colon; more than 100 µM in the assay with SK-MEL-28 melanoma. For the same molecule, the TGI in the assay on OVCAR-8 ovarian is more than 100 µM; in the assay with HT29 colon, 27.8 µM.

Turning to `O=[N+]([O-])c1ccc(/C=C/c2ccc(N=Nc3ccc(/C=C/c4ccc([N+](=O)[O-])cc4S(=O)(=O)O)c(S(=O)(=O)O)c3)cc2S(=O)(=O)O)c(S(=O)(=O)O)c1`, the TGI with NCI-H23 lung, in the assay on NCI-H226 lung, in the assay with UACC-62 melanoma, in the assay with SW-620 colon, with SK-MEL-28 melanoma and in the assay on UACC-257 melanoma was more than 100 µM each time. Moreover, the TGI in the assay with OVCAR-8 ovarian and in the assay on HT29 colon was more than 100 µM each time.

`Cc1cccc2sc(NC(=O)c3cc([N+](=O)[O-])ccc3Cl)nc12`: the TGI is 19.9 µM in the assay with NCI-H23 lung; more than 64.1 µM with NCI-H226 lung; more than 44.8 µM with CAKI-1 renal; 12.6 µM with MDA-MB-435; more than 100 µM in the assay with UACC-62 melanoma; 6.35 µM with SW-620 colon. In addition, the TGI in the assay with SK-MEL-28 melanoma is more than 94.2 µM; with UACC-257 melanoma, more than 100 µM; in the assay on OVCAR-8 ovarian, 9.95 µM; with HT29 colon it was 4.48 µM.

Turning to `OCCCSc1ccccc1SCCCO`, the TGI with NCI-H23 lung, in the assay on MDA-MB-435, in the assay with UACC-62 melanoma, in the assay on SW-620 colon, in the assay with SK-MEL-28 melanoma and in the assay on UACC-257 melanoma was more than 100 µM in each case. The TGI in the assay with OVCAR-8 ovarian and in the assay with HT29 colon was more than 100 µM throughout.

For `O=c1nc2n(cc1/C=C\Br)C1CC(O)C(CO2)O1` (centres undefined), the TGI in the assay with NCI-H23 lung, in the assay on NCI-H226 lung, in the assay on CAKI-1 renal, with MDA-MB-435, in the assay on UACC-62 melanoma and with SW-620 colon was more than 100 µM throughout. For the same molecule, the TGI in the assay on SK-MEL-28 melanoma, in the assay on UACC-257 melanoma, in the assay on OVCAR-8 ovarian and with HT29 colon was more than 100 µM in each case.

Consider `CCOC(OCC)C(CC)[Se]c1ccccc1[N+](=O)[O-]` (centres undefined), for which the TGI was more than 42.7 µM in the assay on NCI-H23 lung; more than 100 µM in the assay on HS 578T breast; 18.4 µM in the assay with NCI-H226 lung; 88.8 µM in the assay on CAKI-1 renal; more than 56.2 µM in the assay with UACC-62 melanoma; more than 100 µM with SW-620 colon. The TGI with SK-MEL-28 melanoma is more than 100 µM; in the assay on UACC-257 melanoma, more than 94.6 µM; in the assay with OVCAR-8 ovarian, 49.9 µM; in the assay on HT29 colon, 7.31 µM.

Take `N#CC1C(=O)Nc2sc(C(=O)c3ccc(Br)cc3)c(N)c2C12CCCCC2` (centres undefined): the TGI in the assay on NCI-H23 lung is more than 100 µM; with NCI-H226 lung it was 80.8 µM; with CAKI-1 renal, more than 100 µM; with MDA-MB-435, 58.9 µM; in the assay on UACC-62 melanoma, 54.1 µM; in the assay on SW-620 colon, 69.4 µM. Also, the TGI in the assay on SK-MEL-28 melanoma is 47.7 µM; with UACC-257 melanoma, more than 100 µM; with OVCAR-8 ovarian it was more than 100 µM; with HT29 colon, more than 100 µM.

For `Cn1c(C(C#N)c2cc(Cl)ncn2)nc2ccccc21` (centres undefined), the TGI in the assay with NCI-H23 lung, in the assay with NCI-H226 lung, with CAKI-1 renal, with MDA-MB-435, with SW-620 colon and in the assay with SK-MEL-28 melanoma was more than 100 µM throughout. In addition, the TGI with UACC-257 melanoma, with OVCAR-8 ovarian and with HT29 colon was more than 100 µM each time.

For `CCSc1nc2sc(C)c(C)c2c(=O)n1-c1ccc(C(=O)O)cc1`, the TGI was more than 100 µM in the assay with NCI-H23 lung; 86.2 µM in the assay on NCI-H226 lung; more than 100 µM in the assay with CAKI-1 renal; more than 100 µM in the assay on UACC-62 melanoma; more than 100 µM in the assay on SW-620 colon; more than 100 µM in the assay on SK-MEL-28 melanoma. Besides, the TGI with UACC-257 melanoma, with OVCAR-8 ovarian and in the assay with HT29 colon was more than 100 µM in each case.

`CC(C)(C)NC(NC(C)(C)C)=C(C(Cl)=C(Cl)Cl)[N+](=O)[O-]`: the TGI with NCI-H23 lung, with HS 578T breast, in the assay on NCI-H226 lung, in the assay on CAKI-1 renal, in the assay with UACC-62 melanoma and in the assay with SW-620 colon was more than 100 µM each time. Moreover, the TGI with SK-MEL-28 melanoma, in the assay on UACC-257 melanoma, with OVCAR-8 ovarian and with HT29 colon was more than 100 µM throughout.

As for `O=C(CCCCCCCCC(=O)NN1C(=O)/C(=C\c2ccc(O)c(O)c2)SC1c1c(O)ccc2ccccc12)NN1C(=O)C(=Cc2ccc(O)c(O)c2)SC1c1c(O)ccc2ccccc12` (centres undefined), the TGI in the assay on NCI-H23 lung is 95.1 µM; in the assay on NCI-H226 lung, more than 100 µM; in the assay with CAKI-1 renal, more than 100 µM; in the assay with MDA-MB-435 it was more than 100 µM; in the assay on UACC-62 melanoma it was 45.6 µM; in the assay on SW-620 colon, more than 100 µM. In addition, the TGI with SK-MEL-28 melanoma is more than 100 µM; in the assay on UACC-257 melanoma it was more than 92.7 µM; with OVCAR-8 ovarian, more than 100 µM; in the assay with HT29 colon, more than 100 µM.

In the case of `C=C(C)C1Cc2c(cc(O)c3c(=O)c4ccccc4n(C)c23)O1` (centres undefined), the TGI in the assay on NCI-H23 lung is more than 100 µM; with NCI-H226 lung, more than 100 µM; in the assay with CAKI-1 renal, 56.7 µM; in the assay with SW-620 colon, more than 100 µM; in the assay with SK-MEL-28 melanoma it was more than 100 µM; in the assay with UACC-257 melanoma, more than 100 µM. In addition, in the assay on HT29 colon, the TGI was more than 100 µM.

Consider `CC1=C(C(=O)OCCO[N+](=O)[O-])C(c2ccccc2C(F)(F)F)C(C(=O)OC(C)C)=C(C)N1` (centres undefined), for which the TGI in the assay with NCI-H23 lung is 85.4 µM; in the assay with NCI-H226 lung, 27.4 µM; with CAKI-1 renal it was 52.3 µM; with MDA-MB-435 it was 53.5 µM; in the assay with UACC-62 melanoma it was 80.2 µM; in the assay with SW-620 colon, more than 100 µM. In addition, the TGI in the assay on SK-MEL-28 melanoma stood at 33.5 µM; in the assay on UACC-257 melanoma it was 25.4 µM; in the assay on OVCAR-8 ovarian it was 64.7 µM; in the assay on HT29 colon, 36.3 µM.

(Values after PubChem BioAssay (NCI).)
